From US5135935A, “Squalene synthetase inhibitors” (Merck & Co., Inc., priority 1991, dated 1992) come the findings set out here.

This test has as its target T1, Squalene Synthetase (Rattus norvegicus, UniProt Q02769).
T1 construct: from tissue; host or cells: liver microsomes of male Charles River CD rats fed 0.1% lovastatin
T1 sequence (Q02769 1-416): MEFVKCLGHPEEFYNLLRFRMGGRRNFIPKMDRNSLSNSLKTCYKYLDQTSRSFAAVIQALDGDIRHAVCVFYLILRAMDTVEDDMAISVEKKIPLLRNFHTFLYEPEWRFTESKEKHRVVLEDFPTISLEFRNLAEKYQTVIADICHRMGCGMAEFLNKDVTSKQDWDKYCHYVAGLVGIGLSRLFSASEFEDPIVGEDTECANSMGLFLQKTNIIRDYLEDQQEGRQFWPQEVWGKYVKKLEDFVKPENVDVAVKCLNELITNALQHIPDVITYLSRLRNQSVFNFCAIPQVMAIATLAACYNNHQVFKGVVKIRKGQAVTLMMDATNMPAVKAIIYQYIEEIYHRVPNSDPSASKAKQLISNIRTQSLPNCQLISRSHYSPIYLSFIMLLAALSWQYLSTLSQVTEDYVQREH
The test is described as follows: Squalene synthetase assay, rat liver microsomes, [4-14C]farnesyl pyrophosphate. The conditions noted are these: salt form as tabulated; for IC50: 30° C., 20 minutes; for inhibition at 0.3 µg/mL: conc. 0.3 μg/mL. The class given is biochemical. As for the experimental part: The intrinsic squalene synthetase inhibitory activity of representative compounds of this invention was measured by the standard in vitro protocol described below:
Male, Charles River CD rats (120 to 150 g) were fed a diet containing 0.1% lovastatin for 4 days. The livers from these rats were homogenized in 5 volumes (mL/g) of ice cold 50 mM HEPES (4-(2-hydroxyethyl)-1-piperazine-ethanesulfonic acid), 5 mM EDTA (ethylenediaminetetraacetic acid) pH 7.5 with a Potter-Elvehjem type tissue grinder. The homogenate was centrifuged twice at 20,000×g for 15 minutes at 4° C., discarding the pellet each time. The supernatant was then centrifuged at 100,000×g for 1 hour at 4° C. The resulting microsomal pellet was resuspended in a volume of the above homogenizing buffer equal to one-fifth the volume of the original homogenate. This microsomal preparation has a protein concentration of about 7 mg/mL. The microsomal suspensions were stored in aliquots at -70° C. Squalene synthetase activity in these aliquots is stable for at least several months.
Prenyl transferase was purified to use in the enzymatic synthesis of radiolabelled farnesyl pyrophosphate. Prenyl transferase was assayed by the method of Rilling (Methods in Enzymology 110, 125-129 (1985)) and a unit of activity is defined as the amount of enzyme that will produce 1 μmole of farnesyl pyrophosphate per minute at 30° C. in the standard assay.
The livers of 23 forty-day old male rats that had been fed 5% cholestyramine plus 0.1% lovastatin were homogenized in a Waring blender in 1 liter of 10 mM mercaptoethanol, 2 mM EDTA, 25 μM leupeptin, 0.005% phenylmethyl sulfonyl fluoride pH 7.0 containing 0.1 trypsin inhibitor units of aprotinin/mL. The homogenate was centrifuged at 20,000×g for 20 minutes. The supernatant was adjusted to pH 5.5. with 6N HOAc and centrifuged at 100,000×g for 1 hour. This supernatant was adjusted to pH 7.0 with 3N KOH and a 35-60% ammonium sulfate fraction taken. The 60% pellet was redissolved in 60 mL of 10 mM potassium phosphate, 10 mM mercaptoethanol, 1 mM EDTA pH 7.0 (Buffer A) and dialyzed against two 1 liter changes of Buffer A. This dialyzed fraction was applied to a 12.5×5 cm column of DEAE-sepharose 4B equilibrated with Buffer A. The column was washed with 700 mL of Buffer A and a 1 liter gradient from Buffer A to 100 mM potassium phosphate, 10 mM mercaptoethanol, 1 mM EDTA pH 7.0. Fractions having a specific activity greater than 0.20 units/mg were combined, solid ammonium sulfate was added to bring to 60% saturation and pelleted. The pellet was dissolved in 8 mL of 10 mM Tris, 10 mM β-mercaptoethanol pH 7.0 (Buffer B). The redissolved pellet was taken to 60% saturation with ammonium sulfate by adding 1.5 volumes of saturated ammonium sulfate in Buffer B. This ammonium sulfate suspension contained 3.5 units/mL with a specific activity of 0.23 units/mg and was free of isopentenyl pyrophosphate isomerase activity. This ammonium sulfate suspension was used for the synthesis of [4-^14 C]farnesyl-pyrophosphate and its activity was stable stored at 4° C. for at least 6 months.
The solvent (ethanol: 0.15N NH4 OH, 1:1) was removed from 55 μCi of [4-^14 C]isopentenyl pyrophosphate(47.9 μCi/μmole) by rotary evaporation. Six hundred microliters of 100 mM Tris, 10 mM MgCl2, 4 mM dithiothreitol pH 7.5 was added and the solution was transferred to a 1.5 ml Eppendorf centrifuge tube. Geranyl-pyrophosphate, 250 μL of a 20 mM solution, and 50 μL of the ammonium sulfate suspension of prenyl transferase were added to initiate the reaction. This incubation contained 5 μmoles of geranyl pyrophosphate, 1.15 μmoles of isopentenyl pyrophosphate, 6 μmoles of MgCl2 of 0.18 units of prenyl transferase in a volume of 900 μL. The incubation was conducted at 37° C. During the incubation, the mix turned cloudy white as the newly formed magnesium complex of farnesyl pyrophosphate precipitated out of solution. […]
In general terms: Liver microsomes are vesicles of endoplasmic reticulum, rich in cytochrome P450 enzymes.

The structures appear in SMILES notation.

In the case of `Cn1cc(-c2noc(C3CN4CCC3CC4)n2)c2ccccc21` (centres unmarked) [Compound 3, 3-[3-(1-methyl-1H-indol-3-yl)-1,2,4-oxadiazol-5-yl]-1-azabicyclo[2.2.2]octane], the IC50 reads like this: (in absence of PPi) 1600 nM; (in presence of 1 mM PPi) 28 nM.

Take `Cn1cc(-c2noc(C3CN4CCC3CC4)n2)c2cc(F)ccc21` (centres unmarked) [Compound 4, 3-[3-(5-fluoro-1-methyl-1H-indol-3-yl)-1,2,4-oxadiazol-5-yl]-1-azabicyclo[2.2.2]octane]: where the note is “in presence of 1 mM PPi”, the inhibition at 0.3 µg/mL came to 97%.

Take `CC(=O)OC(c1ccccc1)c1noc(C2CN3CCC2CC3)n1` (centres unmarked) [Compound 6, 3-[3-(1-acetoxy-1-phenylmethyl)-1,2,4-oxadiazol-5-yl]-quinuclidine]: where the note is “in presence of 1 mM PPi”, the inhibition at 0.3 µg/mL amounted to 70%. The same measure, in the same setting: the value for `OC(c1ccccc1)c1noc(C2CN3CCC2CC3)n1` (stereo not drawn) [Compound 7, α-phenyl-5-(1-azabicyclo[2.2.2]oct-3-yl)-1,2,4-oxadiazole-3-methanol] was 49%. For the molecule `Cn1c(-c2noc(C3CN4CCC3CC4)n2)cc2ccccc21` (centres unmarked) [Compound 15, 3-[3-(1-methyl-1H-indol-2-yl)-1,2,4-oxadiazol-5-yl]-1-azabicyclo[2.2.2]octane], the IC50 by setting is: (in absence of PPi) 1100 nM; (in presence of 1 mM PPi) 20 nM. Consider `Cc1ccc2c(c1)c(-c1noc(C3CN4CCC3CC4)n1)cn2C` (centres unmarked) [Compound 19, 3-[3-(1,5-dimethyl-1H-indol-3-yl)-1,2,4-oxadiazol-5-yl]-1-azabicyclo[2.2.2]octane], for which, under “in presence of 1 mM PPi”, the IC50 stood at 58 nM and the inhibition at 0.3 µg/mL turned out to be 96%. `c1ccc(-c2noc(C3CN4CCC3CC4)n2)cc1` (centres unmarked) [Compound 24, 3-[3-phenyl-1,2,4-oxadiazol-5-yl]-1-azabicyclo[2.2.2]octane]: under “in presence of 1 mM PPi”, the IC50 came out at 43 nM and the inhibition at 0.3 µg/mL stood at 98%.

As for `c1cncc(-c2noc(C3CN4CCC3CC4)n2)c1` (centres unmarked) [Compound 26, 3-[3-(3-pyridinyl)-1,2,4-oxadiazol-5-yl]-1-azabicyclo[2.2.2]octane], the IC50 by setting is: (in absence of PPi) above 10000 nM; (in presence of 1 mM PPi) 660 nM.

For the molecule `c1ccc2c(-c3noc(C4CN5CCC4CC5)n3)cccc2c1` (centres unmarked) [Compound 27, 3-[3-(1-naphthalenyl)-1,2,4-oxadiazol-5-yl]-1-azabicyclo[2.2.2]octane], the IC50 (in absence of PPi) was found to be 2300 nM. Besides, under “in presence of 1 mM PPi”, the IC50 stood at 11 nM and the inhibition at 0.3 µg/mL amounted to 99%. For the molecule `COc1cccc(-c2noc(C3CN4CCC3CC4)n2)c1` (centres unmarked) [Compound 28, 3-[3-(3-methoxyphenyl)-1,2,4-oxadiazol-5-yl]-1-azabicyclo[2.2.2]octane], the IC50 by setting is: (in absence of PPi) 2800 nM; (in presence of 1 mM PPi) 31 nM. Also, the inhibition at 0.3 µg/mL (in presence of 1 mM PPi) amounted to 99%.

Take `COc1ccccc1-c1noc(C2CN3CCC2CC3)n1` (centres unmarked) [Compound 29, 3-[3-(2-methoxyphenyl)-1,2,4-oxadiazol-5-yl]-1-azabicyclo[2.2.2]octane]: the IC50 runs as follows: (in absence of PPi) 14000 nM; (in presence of 1 mM PPi) 250 nM. Regarding `COc1ccc(-c2noc(C3CN4CCC3CC4)n2)cc1` (centres unmarked) [Compound 30, 3-[3-(4-methoxyphenyl)-1,2,4-oxadiazol-5-yl]-1-azabicyclo[2.2.2]octane], for the setting “in presence of 1 mM PPi”, the inhibition at 0.3 µg/mL came to 99%. For `Oc1ccccc1-c1noc(C2CN3CCC2CC3)n1` (centres unmarked) [Compound 31, 2-[5-(1-azabicyclo[2.2.2]oct-3-yl)-1,2,4-oxadiazol-5-yl]-phenol], the inhibition at 0.3 µg/mL (in presence of 1 mM PPi) amounted to 90%.

Turning to `Oc1cccc(-c2noc(C3CN4CCC3CC4)n2)c1` (centres unmarked) [Compound 32, 3-[5-(1-azabicyclo[2.2.2]oct-3-yl)-1,2,4-oxadiazol-5-yl]-phenol], under “in presence of 1 mM PPi”, the inhibition at 0.3 µg/mL turned out to be 92%. As to `Oc1ccc(-c2noc(C3CN4CCC3CC4)n2)cc1` (centres unmarked) [Compound 33, 4-[5-(1-azabicyclo[2.2.2]oct-3-yl)-1,2,4-oxadiazol-5-yl]-phenol], the inhibition at 0.3 µg/mL (in presence of 1 mM PPi) stood at 84%. On the same count and under the same terms, as for `OC(c1ccccc1)(c1ccccc1)c1noc(C2CN3CCC2CC3)n1` (centres unmarked) [Compound 34, 3-[3-(1,1-diphenyl-1-hydroxymethyl)-1,2,4-oxadiazol-5-yl]-quinuclidine], the figure is 60%. On to `c1ccc2c(-c3noc(C4CN5CCC4CC5)n3)c[nH]c2c1` (centres unmarked) [Compound 35, 3-[3-(1H-indol-3-yl)-1,2,4-oxadiazol-5-yl]-1-azabicyclo[2.2.2]octane], for which the IC50 (in absence of PPi) stood at 1900 nM. Where the note is “in presence of 1 mM PPi”, the IC50 was 23 nM and the inhibition at 0.3 µg/mL was 98%. On to `c1ccc2ncc(-c3noc(C4CN5CCC4CC5)n3)cc2c1` (centres unmarked) [Compound 36, 3-[3-(3-quinolyl)-1,2,4-oxadiazol-5-yl]-1-azabicyclo[2.2.2]octane], for which, under “in presence of 1 mM PPi”, the concentration for half-maximal inhibition (IC50) was found to be 42 nM and the inhibition at 0.3 µg/mL is 97%. As to `O=C(c1ccccc1)c1noc(C2CN3CCC2CC3)n1` (centres unmarked) [Compound 37, 3-(3-benzoyl-1,2,4-oxadiazol-5-yl)quinuclidine], the inhibition at 0.3 µg/mL (in presence of 1 mM PPi) stood at 64%.

The term IC50 denotes the concentration that inhibits the measured activity by half. What is called inhibition is the relative decrease from the control value, in per cent.
